Test results taken from the NIST ThermoML archive (doi:10.1021/je200883w).
Numbers after ± are expanded uncertainties.

Settings: 101.33 kPa, Liquid; for viscosity: Concentric cylinders viscometry; for mass density: Vibrating tube method

CCCC[N+]1(C)CCCC1.O=S(=O)([N-]S(=O)(=O)C(F)(F)F)C(F)(F)F
Settings | mass density [kg/m3] | viscosity [mPa·s]
278.15 K | 1412.9 ± 1.9 | 230.3 ± 7.2
283.15 K | 1408.3 ± 1.9 | 169.6 ± 5
288.15 K | 1403.8 ± 1.9 | 128 ± 3.5
293.15 K | 1399.3 ± 1.9 | 98.74 ± 2.6
298.15 K | 1394.9 ± 1.9 | 77.65 ± 1.9
303.15 K | 1390.5 ± 1.9 | 62.14 ± 1.5
308.15 K | 1386.1 ± 1.9 | 50.52 ± 1.2
313.15 K | 1381.8 ± 1.9 | 41.65 ± 0.99
318.15 K | 1377.4 ± 1.9 | 34.78 ± 0.82
323.15 K | 1373 ± 1.8 | 29.38 ± 0.69
328.15 K | 1368.7 ± 1.8 | 25.07 ± 0.59
333.15 K | 1364.3 ± 1.8 | 21.6 ± 0.5
338.15 K | 1360 ± 1.8 | 18.77 ± 0.44
343.15 K | 1355.7 ± 1.8 | 16.44 ± 0.38
348.15 K | 1351.4 ± 1.8 | 14.5 ± 0.34
353.15 K | 1346.9 ± 1.8 | 12.87 ± 0.3
358.15 K | 1342.5 ± 1.8 | 11.5 ± 0.27
363.15 K | 1338.3 ± 1.8 | 10.33 ± 0.24
368.15 K | 1334.3 ± 1.8 | 9.32 ± 0.21
373.15 K | 1330.3 ± 1.8 | 8.454 ± 0.19

CCCC[N+]1(C)CCCC1.O=S(=O)([O-])C(F)(F)F [1-butyl-1-methylpyrrolidinium trifluoromethanesulfonate]
Settings | mass density [kg/m3] | viscosity [mPa·s]
283.15 K | 1263.6 ± 1.6 | 414.9 ± 15
288.15 K | 1259.9 ± 1.6 | 299.4 ± 10
293.15 K | 1256.1 ± 1.6 | 221.7 ± 6.9
298.15 K | 1252.4 ± 1.6 | 167.87 ± 4.9
303.15 K | 1248.7 ± 1.6 | 129.71 ± 3.5
308.15 K | 1245.1 ± 1.6 | 102.06 ± 2.6
313.15 K | 1241.5 ± 1.6 | 81.62 ± 2
318.15 K | 1238 ± 1.6 | 66.24 ± 1.6
323.15 K | 1234.4 ± 1.6 | 54.48 ± 1.3
328.15 K | 1230.8 ± 1.6 | 45.34 ± 1.1
333.15 K | 1227.3 ± 1.6 | 38.16 ± 0.9
338.15 K | 1223.8 ± 1.6 | 32.45 ± 0.76
343.15 K | 1220.3 ± 1.6 | 27.84 ± 0.65
348.15 K | 1216.8 ± 1.6 | 24.08 ± 0.56
353.15 K | 1213.3 ± 1.6 | 21 ± 0.49
358.15 K | 1209.7 ± 1.6 | 18.44 ± 0.43
363.15 K | 1205.9 ± 1.5 | 16.29 ± 0.38
368.15 K | 1202.5 ± 1.5 | 14.48 ± 0.33
373.15 K | 1199.2 ± 1.5 | 12.95 ± 0.3

CCCCCCCCCCCCCC[P+](CCCCCC)(CCCCCC)CCCCCC.FC(F)(F)C(F)(F)[P-](F)(F)(F)(C(F)(F)C(F)(F)F)C(F)(F)C(F)(F)F
Settings | mass density [kg/m3] | viscosity [mPa·s]
268.15 K | 1207.4 ± 1.5 | 3067.3 ± 180
273.15 K | 1203.2 ± 1.5 | 2010 ± 110
278.15 K | 1198.9 ± 1.5 | 1345.2 ± 66
283.15 K | 1194.6 ± 1.5 | 928.39 ± 42
288.15 K | 1190.3 ± 1.5 | 654.2 ± 27
293.15 K | 1186 ± 1.5 | 471.76 ± 18
298.15 K | 1181.7 ± 1.5 | 347.06 ± 12
303.15 K | 1177.6 ± 1.5 | 260.12 ± 8.4
308.15 K | 1173.5 ± 1.5 | 198.3 ± 6
313.15 K | 1169.4 ± 1.5 | 153.61 ± 4.3
318.15 K | 1165.3 ± 1.5 | 120.76 ± 3.2
323.15 K | 1161.3 ± 1.5 | 96.23 ± 2.4
328.15 K | 1157.3 ± 1.5 | 77.68 ± 1.9
333.15 K | 1153.3 ± 1.5 | 63.45 ± 1.5
338.15 K | 1149.3 ± 1.5 | 52.39 ± 1.2
343.15 K | 1145.3 ± 1.4 | 43.71 ± 1
348.15 K | 1141.2 ± 1.4 | 36.8 ± 0.87
353.15 K | 1137 ± 1.4 | 31.27 ± 0.73
358.15 K | 1132.7 ± 1.4 | 26.79 ± 0.63
363.15 K | 1128.7 ± 1.4 | 23.12 ± 0.54
368.15 K | 1124.9 ± 1.4 | 20.09 ± 0.47
373.15 K | 1121.1 ± 1.4 | 17.57 ± 0.41

CCCCCCOS(=O)(=O)[O-].CC[n+]1ccn(C)c1 [3-ethyl-1-methyl-1H-imidazolium hexyl sulfate]
Settings | mass density [kg/m3] | viscosity [mPa·s]
268.15 K | 1151.4 ± 1.5 | 3425.9 ± 200
273.15 K | 1147.9 ± 1.5 | 2124.1 ± 120
278.15 K | 1144.4 ± 1.4 | 1362.1 ± 68
283.15 K | 1140.9 ± 1.4 | 904.77 ± 41
288.15 K | 1137.4 ± 1.4 | 620.25 ± 25
293.15 K | 1133.8 ± 1.4 | 437.53 ± 16
298.15 K | 1130.4 ± 1.4 | 316.78 ± 11
303.15 K | 1127 ± 2 | 234.83 ± 7.4
308.15 K | 1123.7 ± 1.4 | 177.81 ± 5.2
313.15 K | 1120.5 ± 1.4 | 137.23 ± 3.8
318.15 K | 1117.2 ± 1.4 | 107.82 ± 2.8
323.15 K | 1114 ± 2 | 86.06 ± 2.1
328.15 K | 1110.8 ± 1.4 | 69.71 ± 1.7
333.15 K | 1107.6 ± 1.4 | 57.21 ± 1.4
338.15 K | 1104.4 ± 1.4 | 47.52 ± 1.1
343.15 K | 1101.2 ± 1.4 | 39.91 ± 0.94
348.15 K | 1097.9 ± 1.4 | 33.86 ± 0.79
353.15 K | 1094.5 ± 1.4 | 29 ± 0.68
358.15 K | 1091.2 ± 1.4 | 25.04 ± 0.58
363.15 K | 1088.1 ± 1.4 | 21.8 ± 0.51
368.15 K | 1085.1 ± 1.4 | 19.11 ± 0.44
373.15 K | 1082.3 ± 1.4 | 16.87 ± 0.39
